Laboratory results: patent publication US11826402B2, “Combination therapy involving antibodies against claudin 18.2 for treatment of metastatic pancreatic adenocarcinoma” (Astellas Pharma Inc., priority 2013, dated 2023)

Key:
Assay type in all cases: cell-based, human
[1] = test system: Kato III cells; assay: Cell cycle analysis of gastric cancer cells with cytostatic compounds
Procedure: Kato III cells, a human gastric tumor cell line, was cultivated in RPMI 1640 medium (Invitrogen) containing 20% FCS (Perbio) and 2 mM Glutamax (Invitrogen) at 37° C. and 5% CO2, with or without cytostatic compounds. 5-FU (Neofluor from NeoCorp AG) was tested at a concentration of 10 or 100 ng/ml, and oxaliplatin (Hospira) was tested at a concentration of 50 or 500 ng/ml. […] Cells were harvested with EDTA/trypsin, washed and analysed.
Cell cycle stages were determined based on measurement of cellular DNA content. This allows one to discriminate between cells in the G1-, S- or G2-phase of the cell cycle. In the S-phase DNA duplication occurs whereas in the G2-phase cells grow and prepare for mitosis. Cell cycle analysis was done using the CycleTEST PLUS DNA Reagent Kit from BD Biosciences following the manufacturer's protocol. Flow cytometry acquisition and analysis were performed by using BD FACS CantoII (BD Biosciences) and FlowJo (Tree Star) software.
Kato III cells were pretreated for 4 days with Irinotecan or Docetaxel and analysed for CLDN18.2 expression and cell cycle arrest.

[2] = test system: Kato III cells; assay: Kato III cells pretreated with cytostatic compounds: cell growth, viable cells, CLDN18.2 expression; details: for claudin18.2 expression versus medium cultivated cells / level of viable cells versus medium cultivated cells: Kato III pretreated 3 days, Irinotecan 1000 ng/ml, Docetaxel 5 ng/ml, Cisplatin 2000 ng/ml; for cell growth: Kato III pretreated for 4 days
[3] = test system: KATO-III; assay: IMAB362-induced ADCC on gastric cancer cells, also after chemotherapy pretreatment; details: Kato III pretreated 3 days; Irinotecan 1000 ng/ml, Docetaxel 5 ng/ml, Cisplatin 2000 ng/ml
Procedure: Peripheral blood mononuclear cells (PBMCs) including NK cells, monocytes, […] or other effector cells from healthy human donors were purified by Ficoll Hypaque density centrifugation. Washed effector cells were seeded in X-Vivo medium. Kato III cells which express CLDN18.2 endogenously and are of gastric origin were used as target cells in this setting. Target cells stably expressed luciferase, lucifer yellow, which is oxidized by viable cells only.

[4] = test system: MiaPaCa-2-LVT; assay: Inhibition of proliferation (XTT viability assay, 4 days)
Procedure: To analyze dose-response curves of each chemotherapeutic agent, a proliferation assay was performed.
Cells were seeded in 96 well plates and after 4-6 hours gemcitabine or oxaliplatin was added in following concentrations: 1000, 500, 250, 100 and 20 ng/ml. The proliferation assay was incubated for 4 days at 37° C. and 5% CO2. 50 μl XTT complete reagent (50 parts XTT+1 part coupl. reagent mixed) was added and incubated at 37° C. Measurement of absorbance (cells plus supernatant) was done with the Tecan Safire after 3 h and 4 h. Inhibition of proliferation was calculated compared to medium values set as 100%. EC50 values for gemcitabine and oxaliplatin were calculated in the GraphPad Prism program.

| Structure (SMILES) | cell cycle effect [1] | claudin18.2 expression versus medium cultivated cells [2] | level of viable cells versus medium cultivated cells [2] | effect of pretreatment on IMAB362 induced ADCC [3] | sensitivity of cells to the agent [4] | cell growth [2] |
| --- | --- | --- | --- | --- | --- | --- |
| O=c1[nH]cc(F)c(=O)[nH]1 [5-FU, 5-fluoro-1H-pyrimidine-2,4-dione] | blocked predominantly in the S-phase | – | – | – | – | – |
| N.N.[Cl][Pt][Cl] [Cisplatin, cis-diaminedichloroplatinum(II)] | – | increased | lower level of viable cells | augments the potency of IMAB362 to induce ADCC | – | – |
| O=C1[O][Pt]2([NH][C@@H]3CCCC[C@H]3[NH]2)[O]C1=O [oxaliplatin, [(1R,2R)-cyclohexane-1,2-diamine](ethanedioato-O,O′)platinum(II)] | – | – | – | – | most sensitive | – |
| CC(=O)O[C@@]12CO[C@@H]1C[C@H](O)[C@@]1(C)C(=O)[C@H](O)C3=C(C)[C@@H](OC(=O)[C@H](O)[C@@H](NC(=O)OC(C)(C)C)c4ccccc4)C[C@@](O)([C@@H](OC(=O)c4ccccc4)[C@H]21)C3(C)C [Docetaxel, 1,7β,10β-trihydroxy-9-oxo-5β,20-epoxytax-11-ene-2α,4,13α-triyl 4-acetate 2-benzoate 13-{(2R,3S)-3-[(tert-butoxycarbonyl)-amino]-2-hydroxy-3-phenylpropanoate}] | cell cycle arrest in the G2-phase | increased | lower level of viable cells | augments the potency of IMAB362 to induce ADCC | – | dose dependent inhibition of cell growth |
| CCc1c2c(nc3ccc(OC(=O)N4CCC(N5CCCCC5)CC4)cc13)-c1cc3c(c(=O)n1C2)COC(=O)[C@]3(O)CC [Irinotecan, (S)-4,11-diethyl-3,4,12,14-tetrahydro-4-hydroxy-3,14-dioxo1H-pyrano[3′,4′:6,7]-indolizino[1,2-b]quinolin-9-yl-[1,4′-bipiperidine]-1′-carboxylate] | cell cycle arrest in the S/G2-phase | increased | lower level of viable cells | augments the potency of IMAB362 to induce ADCC | – | dose dependent inhibition of cell growth |
